Data from PubChem BioAssay (NCI).
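Growth conditions: 96-well plates. Treatment: test compound, 48 hours, 5 concentrations. Analysis: linear interpolation between bracketing concentrations; unreached endpoints set to highest concentration. Abbreviation: GI50, concentration required for 50% inhibition of growth. TGI: concentration producing complete growth inhibition.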

Key:
Experiment in all cases: growth of human tumour cells (NCI), 48 h
HS 578T breast = system: HS 578T breast
IGROV1 ovarian = system: IGROV1 ovarian
A498 renal = system: A498 renal
ACHN renal = system: ACHN renal
HOP-92 NSCLC = system: HOP-92 NSCLC
MDA-MB-231 breast = system: MDA-MB-231 breast
HOP-62 NSCLC = system: HOP-62 NSCLC
SN12C renal = system: SN12C renal
CCRF-CEM leukemia = system: CCRF-CEM leukemia
SNB-19 CNS = system: SNB-19 CNS
MDA-MB-435 = system: MDA-MB-435
SW-620 colon = system: SW-620 colon
RPMI-8226 leukemia = system: RPMI-8226 leukemia
SK-MEL-28 melanoma = system: SK-MEL-28 melanoma
EKVX NSCLC = system: EKVX NSCLC
DU-145 prostate = system: DU-145 prostate
K-562 leukemia = system: K-562 leukemia
OVCAR-3 ovarian = system: OVCAR-3 ovarian
BT-549 breast = system: BT-549 breast
SK-OV-3 ovarian = system: SK-OV-3 ovarian
UACC-62 melanoma = system: UACC-62 melanoma
HCC-2998 colon = system: HCC-2998 colon
HL-60(TB) leukemia = system: HL-60(TB) leukemia
OVCAR-5 ovarian = system: OVCAR-5 ovarian
OVCAR-8 ovarian = system: OVCAR-8 ovarian
M14 melanoma = system: M14 melanoma
NCI-H460 lung = system: NCI-H460 lung

With N#C/C(=C\c1ccc2c(c1)OCO2)n1nnc2ccccc21 the GI50 (HS 578T breast) was 2530 nM, the TGI (HS 578T breast) was 9360 nM and the GI50 (IGROV1 ovarian) was 716 nM. The TGI (IGROV1 ovarian) was 11800 nM, the GI50 (A498 renal) was 1760 nM and the TGI (A498 renal) was 5280 nM. For the same compound, the GI50 (ACHN renal) was 784 nM, the TGI (ACHN renal) was 8530 nM and the GI50 (HOP-92 NSCLC) was 810 nM. The TGI (HOP-92 NSCLC) was 3310 nM, the GI50 (MDA-MB-231 breast) was 1700 nM and the TGI (MDA-MB-231 breast) was 7730 nM. It also gave a GI50 (HOP-62 NSCLC) of 2410 nM, a TGI (HOP-62 NSCLC) of 14900 nM and a GI50 (SN12C renal) of 1320 nM. The TGI (SN12C renal) was 14800 nM, the GI50 (CCRF-CEM leukemia) was 491 nM and the TGI (CCRF-CEM leukemia) was over 100000 nM. For the same compound, the GI50 (SNB-19 CNS) was 1420 nM, the TGI (SNB-19 CNS) was 13300 nM and the GI50 (MDA-MB-435) was 200 nM. The TGI (MDA-MB-435) was 501 nM, the GI50 (SW-620 colon) was 489 nM and the TGI (SW-620 colon) was over 100000 nM. It also gave a GI50 (RPMI-8226 leukemia) of 2190 nM, a TGI (RPMI-8226 leukemia) of over 100000 nM and a GI50 (SK-MEL-28 melanoma) of 1240 nM. The TGI (SK-MEL-28 melanoma) was 17600 nM, the GI50 (EKVX NSCLC) was 1540 nM and the TGI (EKVX NSCLC) was 16300 nM. It also gave a GI50 (DU-145 prostate) of 1900 nM, a TGI (DU-145 prostate) of 13100 nM and a GI50 (K-562 leukemia) of 361 nM. It also gave a TGI (K-562 leukemia) of over 100000 nM, a GI50 (OVCAR-3 ovarian) of 357 nM and a TGI (OVCAR-3 ovarian) of 14300 nM. For the same compound, the GI50 (BT-549 breast) was 938 nM, the TGI (BT-549 breast) was 15000 nM and the GI50 (SK-OV-3 ovarian) was 2610 nM. The TGI (SK-OV-3 ovarian) was 17000 nM, the GI50 (UACC-62 melanoma) was 450 nM and the TGI (UACC-62 melanoma) was 18500 nM. For the same compound, the GI50 (HCC-2998 colon) was 1860 nM, the TGI (HCC-2998 colon) was 7230 nM and the GI50 (HL-60(TB) leukemia) was 330 nM. It also gave a TGI (HL-60(TB) leukemia) of over 100000 nM, a GI50 (OVCAR-5 ovarian) of 2220 nM and a TGI (OVCAR-5 ovarian) of 7130 nM. For the same compound, the GI50 (OVCAR-8 ovarian) was 1760 nM, the TGI (OVCAR-8 ovarian) was over 100000 nM and the GI50 (M14 melanoma) was 424 nM. For the same compound, the TGI (M14 melanoma) was 23500 nM, the GI50 (NCI-H460 lung) was 2860 nM and the TGI (NCI-H460 lung) was over 100000 nM.
